Test results from patent US20030054520A1, “Recombinant enzymes having improved NAD (H) affinity” (DEGUSSA AG, priority 2000, published 2003).

system: G38D mutein; experiment: Substrate spectrum: photometric reduction of keto substrates with NADH; format: biochemical; conditions: relative to acetophenone; 10 mM keto substrate, 0.4 mM NADH, pH 7.0, 30° C.
Procedure: It is known that the NADP(H)-dependent wild-type enzyme can reduce numerous ketones, keto esters and other carbonyl-groupcontaining compounds stereospecifically. Hereinafter, only a few selected keto compounds are tested as substrates, in order to confirm that the substrate-recognition region has not been changed in principle by the change of coenzyme binding site. For this purpose the keto compounds are tested in the following mixture (total volume of 1 ml).
10 mM keto substrate; 1 MM MgCl2.6H2O; 0.4 mM NADH; 960 μl of triethanolamine buffer, 50 mM, pH 7.0; 10 μl of enzyme (G38D mutein); partly purified (phenylsepharose; see above).
The activity is determined photometrically at 340 nm (30° C.). The following table summarizes the activity values.

**Q.** Which “Activity, relative” value does the source give for `COC(=O)CC(C)=O` [Acetoacetic acid methyl ester] here?
**A.** The value was 188%.

**Q.** How did the “Activity, relative” value turn out when `CCC(=O)CC(=O)OC` [3-Oxovaleric acid methyl ester] was run?
**A.** The value was 127%.

**Q.** With `COC(=O)C(=O)c1ccccc1` [Phenylglyoxylic acid methyl ester] as the compound, how does the “Activity, relative” value read?
**A.** Its value is 10%.

**Q.** `CCOC(=O)C(=O)C(C)C` [3-Methyl-2-oxobutyric acid ethyl ester] was tested. Which “Activity, relative” value did it give?
**A.** Its value is 84%.

**Q.** Which “Activity, relative” value does the source give for `CC(=O)c1ccccc1` [Acetophenone] here?
**A.** The value was 100%.

**Q.** For `COC(=O)C(C)=O` [Pyruvic acid methyl ester], which “Activity, relative” value is on record?
**A.** Its value is 191%.

**Q.** `CCCCCC(C)=O` [2-Heptanone] was tested. Which “Activity, relative” value did it give?
**A.** The value was 207%.

**Q.** How did the “Activity, relative” value turn out when `CCOC(=O)CC(C)=O` [Acetoacetic acid ethyl ester] was run?
**A.** Its value is 88%.

**Q.** How did the “Activity, relative” value turn out when `CCOC(=O)CC(=O)CCl` [4-Chloroacetoacetic acid ethyl ester] was run?
**A.** The value was 228%.

**Q.** Which “Activity, relative” value does the source give for `CCOC(=O)C(=O)CC` [2-Oxobutyric acid ethyl ester] here?
**A.** Its value is 137%.

**Q.** `CCCCC(C)=O` [2-Hexanone] was tested. Which “Activity, relative” value did it give?
**A.** The value was 169%.

**Q.** How did the “Activity, relative” value turn out when `CCOC(=O)C(C)=O` [Pyruvic acid ethyl ester] was run?
**A.** Its value is 260%.

**Q.** For `CC(=O)c1ccc(Cl)cc1` [4-chloroacetophenone], which “Activity, relative” value is on record?
**A.** Its value is 68%.

**Q.** For `CCOC(=O)C(=O)CCc1ccccc1` [Benzyl pyruvate ethyl ester], which “Activity, relative” value is on record?
**A.** Its value is 13%.

**Q.** `CC1CCCCC1=O` (stereo not drawn) [2-Methylcyclohexanone] was tested. Which “Activity, relative” value did it give?
**A.** The value was 334%.
